# Assay results reported in paper PMC7046148 (Scientific Reports, 2020).
# How the values were obtained:
# Gibco hiPSCs = test: qRT-PCR characterization of LPM differentiation, Gibco hiPSCs in 2D; assay type: cell-based, human; conditions: 20 µM thalidomide, 2 d in APEL2+GSKi; for effect on marker gene expression during LPM differentiation (words): 2D
# Experimental: The TaqMan hPSC Scorecard Assay (Thermo Fisher) was used to assess the pluripotency of cultured Gibco hiPSCs and the XCL-1 hiPSC clones as described. The assay outputs scores for self-renewal, ectoderm, endoderm, and mesoderm genes.
# Gibco hiPSCs were seeded in small clumps at ~10% confluence on Matrigel-coated dishes and were cultured for 1 d in mTeSR-1. On the following day after seeding, the medium was switched to APEL2 basal medium (Stem Cell Technologies) supplemented with 5 µM CHIR99021 (Stem Cell Technologies) (hereafter referred to as APEL2 + GSKi). hiPSCs were cultured for the described duration in APEL2 + GSKi and were characterized by qRT-PCR and immunofluorescence. Briefly, RNA was extracted using buffer RLT supplemented with 1% β-mercaptoethanol and purified from hiPSCs using RNeasy kit (Qiagen) with optional DNase step. Reverse transcription was carried out using the high capacity cDNA reverse transcription kit (ThermoFisher). cDNA was characterized using Qubit HS dsDNA kit (Invitrogen), and qRT-PCR was carried out using TaqMan primer/probes (Thermo Fisher) and fast advanced master mix (Thermo Fisher) per manufacturer’s instructions on either the Viia7 or QuantStudio 5 (Thermo Fisher). Assay results were normalized to ACTB housekeeping control and the undifferentiated control (day 0) via the 2^−ΔΔCT method. The capacity of Gibco hiPSCs and XCL-1 hiPSCs to undergo LPM differentiation was also assessed using qRT-PCR for markers of pluripotency (NANOG, POU5F1), primitive streak (T, SOX17), LPM (FOXF1, GATA4), and limb mesenchyme (PITX1, TBX5).
# Data represent the mean ± log2 fold change, normalized to the ACTB control and the DMSO control via the 2^−ΔΔCT method, relative to DMSO control from 4 independent experiments. Asterisks denote statistical significance via 2-tailed Student’s t-test relative to a nominal mean log2 fold change of ‘0’ (α = 0.05). PS = primitive streak; LPM = lateral plate mesoderm.
# Legend for Supplementary Tables 1-3
# Supplementary tables 1-3 contain qRT-PCR data obtained using the Taqman hPSC Scorecard Assay (Thermo Fisher).Lysates of Gibco and XCL-1 hiPSCs were purified to RNA using RNeasy procedure (Qiagen). Reverse transcription was performed using the cDNA high capacity reverse transcription kit(Invitrogen). dsDNA content was calculated using Qubit dsDNA HS kit(Invitrogen). cDNA was loaded into hPSC pluripotency panel pre-loaded 384 well plates, and plates were run on Viia7 using standard curve method. The hPSC scorecard analysis software (Thermo Fisher) was used to calculate the relative gene expression scores forself-renewal genes, ectoderm genes, endoderm genes, and mesoderm genes. Scores are provided from pooled lysates from replicate wells ofa single experiment. Cells were cultured as described herein. […]
# SALL4 = biological target: T1, SALL4 (Homo sapiens, UniProt Q96SW2+Q9UJQ4); test: SALL4 MFI by high content imaging, XCL-1 SALL4 mock hiPSCs; assay type: cell-based; conditions: SALL4 mock control hiPSCs, 8 h of treatment
# T1 construct: Unmodified Gibco hiPSCs were either differentiated in APEL2 + GSKi or maintained in mTeSR1, and SALL4 nuclear protein expression was monitored; endogenous in cells; host or cells: Gibco hiPSCs; XCL-1 SALL4 mock hiPSC clone
# From the text: High content imaging analysis of SALL4 immunofluorescence with DAPI counterstaining in hiPSCs. […] Data represent the mean +/− SEM from 2 independent experiments.
# T1 sequence (Q9UJQ4 whole entry): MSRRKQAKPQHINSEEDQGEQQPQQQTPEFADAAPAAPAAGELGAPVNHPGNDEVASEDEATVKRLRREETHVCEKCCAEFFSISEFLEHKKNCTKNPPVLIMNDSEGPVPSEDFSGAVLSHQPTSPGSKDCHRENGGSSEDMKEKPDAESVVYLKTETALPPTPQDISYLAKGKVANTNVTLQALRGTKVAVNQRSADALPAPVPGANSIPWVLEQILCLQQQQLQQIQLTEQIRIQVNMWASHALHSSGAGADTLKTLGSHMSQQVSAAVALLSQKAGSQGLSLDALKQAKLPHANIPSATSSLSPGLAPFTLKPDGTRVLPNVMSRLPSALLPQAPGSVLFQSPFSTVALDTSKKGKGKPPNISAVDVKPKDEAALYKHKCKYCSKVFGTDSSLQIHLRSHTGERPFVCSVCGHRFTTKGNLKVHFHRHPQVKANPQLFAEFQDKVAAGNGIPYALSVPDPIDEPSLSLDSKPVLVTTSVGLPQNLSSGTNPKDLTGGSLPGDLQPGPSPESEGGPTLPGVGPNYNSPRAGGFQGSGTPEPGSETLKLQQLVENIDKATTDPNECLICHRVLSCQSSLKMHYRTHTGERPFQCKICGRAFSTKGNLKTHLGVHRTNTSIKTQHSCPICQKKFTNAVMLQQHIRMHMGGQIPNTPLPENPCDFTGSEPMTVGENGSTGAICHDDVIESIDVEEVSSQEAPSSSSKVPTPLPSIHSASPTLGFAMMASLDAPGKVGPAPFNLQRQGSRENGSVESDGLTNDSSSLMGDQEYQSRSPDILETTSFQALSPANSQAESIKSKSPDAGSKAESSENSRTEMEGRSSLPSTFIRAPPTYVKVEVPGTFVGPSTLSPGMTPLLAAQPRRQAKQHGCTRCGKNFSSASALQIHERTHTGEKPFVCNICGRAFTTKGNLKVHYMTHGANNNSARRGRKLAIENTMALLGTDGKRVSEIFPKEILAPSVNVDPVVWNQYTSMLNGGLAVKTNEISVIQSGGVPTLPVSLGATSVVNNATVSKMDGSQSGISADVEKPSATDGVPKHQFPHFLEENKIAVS
# T1 sequence (Q96SW2 whole entry): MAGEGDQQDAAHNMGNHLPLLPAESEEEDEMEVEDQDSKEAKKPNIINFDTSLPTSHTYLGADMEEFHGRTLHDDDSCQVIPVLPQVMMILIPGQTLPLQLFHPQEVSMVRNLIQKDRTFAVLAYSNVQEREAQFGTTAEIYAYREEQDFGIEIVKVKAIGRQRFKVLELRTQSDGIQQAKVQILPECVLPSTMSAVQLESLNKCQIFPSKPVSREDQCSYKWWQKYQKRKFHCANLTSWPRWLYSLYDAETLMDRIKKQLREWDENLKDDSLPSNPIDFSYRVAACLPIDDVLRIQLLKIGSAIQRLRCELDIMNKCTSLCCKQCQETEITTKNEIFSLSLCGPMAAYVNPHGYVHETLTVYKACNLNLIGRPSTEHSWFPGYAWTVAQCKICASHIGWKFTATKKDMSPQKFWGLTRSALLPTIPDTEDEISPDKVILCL
# T1 sequence (Q16531 whole entry partner): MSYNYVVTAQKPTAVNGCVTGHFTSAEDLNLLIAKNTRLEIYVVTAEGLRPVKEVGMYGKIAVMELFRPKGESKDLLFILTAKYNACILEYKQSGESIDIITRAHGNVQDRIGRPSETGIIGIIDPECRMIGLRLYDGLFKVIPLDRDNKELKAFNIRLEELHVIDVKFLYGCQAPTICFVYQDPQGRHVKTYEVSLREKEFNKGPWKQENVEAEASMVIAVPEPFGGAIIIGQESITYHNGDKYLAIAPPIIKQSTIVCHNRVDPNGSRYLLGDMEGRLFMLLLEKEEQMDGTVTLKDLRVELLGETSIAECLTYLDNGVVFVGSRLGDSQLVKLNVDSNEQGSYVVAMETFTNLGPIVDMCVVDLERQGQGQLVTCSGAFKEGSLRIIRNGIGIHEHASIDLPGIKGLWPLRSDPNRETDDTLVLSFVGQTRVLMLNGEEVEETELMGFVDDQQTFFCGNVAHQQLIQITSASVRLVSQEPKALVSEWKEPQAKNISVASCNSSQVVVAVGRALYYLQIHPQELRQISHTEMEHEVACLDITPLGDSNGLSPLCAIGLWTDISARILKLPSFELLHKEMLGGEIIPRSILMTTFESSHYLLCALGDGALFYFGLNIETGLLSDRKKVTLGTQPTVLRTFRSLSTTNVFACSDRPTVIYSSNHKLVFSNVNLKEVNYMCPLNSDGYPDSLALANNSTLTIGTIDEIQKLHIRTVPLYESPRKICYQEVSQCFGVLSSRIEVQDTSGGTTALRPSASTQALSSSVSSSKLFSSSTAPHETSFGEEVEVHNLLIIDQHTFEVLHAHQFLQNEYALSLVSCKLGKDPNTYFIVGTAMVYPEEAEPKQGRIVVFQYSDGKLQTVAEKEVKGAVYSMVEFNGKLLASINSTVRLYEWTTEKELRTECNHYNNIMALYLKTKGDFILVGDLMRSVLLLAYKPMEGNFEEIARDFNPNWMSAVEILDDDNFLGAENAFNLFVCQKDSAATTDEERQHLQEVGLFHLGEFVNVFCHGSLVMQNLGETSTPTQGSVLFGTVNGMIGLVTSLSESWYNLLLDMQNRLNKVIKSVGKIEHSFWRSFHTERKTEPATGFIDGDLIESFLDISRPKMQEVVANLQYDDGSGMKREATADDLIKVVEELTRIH
smiles,measurement,setting,value
"O=C1CCC(N2C(=O)c3ccccc3C2=O)C(=O)N1 (centres unmarked) [Thalidomide, thalidomide]",effect on marker gene expression during LPM differentiation (words),Gibco hiPSCs,did not affect expression of the other measured markers
same,effect on marker gene expression during LPM differentiation (words),Gibco hiPSCs; listed as thalidomide,significantly reduced the expression of both FOXF1 and SOX17
same,reduction of FOXF1 expression,Gibco hiPSCs; hPSC Scorecard panel,~ 60%
same,reduction of SOX17 expression,Gibco hiPSCs; hPSC Scorecard panel,> 95%
same,effect on SALL4 MFI,SALL4,potently reduced SALL4 MFI
